Laboratory results reported in US20220348876A1, “METABOLISM GUIDES DEFINITIVE LINEAGE SPECIFICATION DURING ENDOTHELIAL TO HEMATOPOIETIC TRANSITION” (Amniotics AB, priority 2019, published 2022).
Where two headings read alike, the source gives them in different places.

What was measured:
[1] = test system: HE cells; assay: HE cell subculture with compounds, flow cytometry; format: cell-based, human; conditions: for HE-derived CD43+GPA+ cell output: day 3 of subculture vs control, UK5099 10 μM, DCA 3 mM
Description: The RB9-CB1 human iPSC line was co-cultured with mouse embryonic fibroblasts (MEFs, Millipore), passaged every six days and processed to form embryoid bodies (EBs) as described previously (Guibentif, C. et al. Cell Reports 19, 10-19 (2017)). The differentiation protocol used in this study was previously described (Ditadi, A. & Sturgeon, C. M. Methods 101, 65-72 (2016)), however, small modifications were made to induce both primitive and definitive hematopoiesis, as indicated below and in FIG. 7, a. Newly-formed EBs were first kept in SFD medium supplemented with 1 ng/ml Activin A (on days 0-2) and 3 μM CHIR99021 (on day 2 only). At day 3, media was switched to “Day 3-SP34” medium supplemented with 1 ng/ml Activin A (on day 3 only) and 3 μM CHIR99021 (on day 3 only) until day 6. On day 6, media was replaced by “Day 6-SP34” medium, until day 8. In some experiments where indicated, to obtain a higher yield of HSC-like cells, EBs were kept until day 10: in this case, EBs were plated onto Matrigel (8 μg/cm^2, Corning)-coated dishes on day 8 and kept until day 10. Media was changed every day, except on days 5 and 7. On day 8 or 10 (as indicated), EBs were singularized with 5-6 rounds of 5-minute incubations with TryPLE Express (Thermo Fisher Scientific). CD34^+ cells were selected using the human CD34 MicroBead kit (Miltenyi Biotec) and stained with CD34-FITC, CD73-PE, VECad-PerCPCy5.5, CD38-PC7, CD184-APC, CD45-AF700, CD43-APCH7, GPA-eF450, CD90-BV605 and the viability marker 7AAD in order to sort HE (CD34^+CD43^−CXCR4^−CD73^−CD90^+VECad^+), EHT (CD34^+CD43^intCXCR4^−CD73^−CD90^+VECad^+) and HSC-like (CD34^+CD43^+CD90^+CD38^−) cells, according to previously described markers (Guibentif, C. et al. Cell Reports 19, 10-19 (2017); Harris, J. M. et al. Blood 121, 2483-2493 (2013) and Schenk, T. et al. Nat Med 18, 605-611 (2012)).
Sorted HE (40,000), EHT (30,000) and HSC-like (5-20,000) cells were plated onto Matrigel (16 μg/cm^2, Corning)-coated 96-well flat bottom plates in HE medium (30) with 1% penicillin-streptomycin and kept in a humidified incubator at 37° C., 5% CO2, 4% O2 overnight. […] Media was changed and drugs were added every 2 days and cells were kept in a humidified incubator at 37° C., 5% CO2, 20% O2 for 6-7 days.
(§1) To measure proliferation, cells were processed with the CellTrace Violet (CTV) kit according to manufacturer's instructions (10-minute incubation) and fluorescence was measured on a BD LSRFortessa. […] Flow cytometry outputs were analyzed on FlowJo Software, with initial gatings on SSC-A/FSC-A, FSC-H/FSC-A, SSC-H/SSC-A and 7-AAD to exclude doublets and dead cells in all experiments.

[2] = test system: HE cells; assay: Lymphoid differentiation assay on OP9-DL1 stroma; format: cell-based, human; conditions: 3-day subculture in glutamine-free medium, then 35-day co-culture
Experimental: Subculture day 3 HE cells cultured in the presence of UK5099 (10 μM), DCA (3 mM), or in glutamine-free medium with DMK (1.75 mM), nucleosides (1×) or NEAAs (1×), as indicated, were collected after a 2-minute incubation at 37° C. with StemPro Accutase Cell Dissociation Reagent and seeded onto 80% confluent OP9-DL1 stroma. Cells were cultured in OP9 medium with SCF (10 ng/ml), FLT3-L (10 ng/ml), IL-2 (5 ng/ml), IL-7 (5 ng/ml, first 15 days only) and IL-15 (10 ng/ml) with passaging onto new OP9-DL1 stroma every week, as described previously (Renoux, V. M. et al. Immunity 43, 394-407 (2015)). At day 35 of co-culture, cells were analyzed on a BD LSRFortessa.

[3] = test system: HE, EHT and HSC-like cells; conditions: 100 μM FCCP, all cell types
Experimental: On days 3 and 6 of subculture, cells were collected after a 2-minute incubation at 37° C. with StemPro Accutase Cell Dissociation Reagent and stained with CD34-FITC, CD14-PE, CD33-PC7, CD11b-APC, CD45-AF700, CD43-APCH7, GPA-eF450, CD90-BV605 and the viability marker 7AAD and fluorescence was measured on a BD LSRII. To measure mitochondrial activity, cells were incubated with Tetramethylrhodamine ethyl ester (TMRE, 20 nM) for 30 minutes at 37° C. Negative controls were incubated with 100 μM FCCP for 30 minutes at 37° C., prior to TMRE staining. […] III and MFI levels—MFI FMO were calculated. […] III. To measure proliferation, cells were processed with the CellTrace Violet (CTV) kit according to manufacturer's instructions (10-minute incubation) and fluorescence was measured on a BD LSRFortessa. To measure EdU incorporation, HE cells were assessed on day 1 or 2 of subculture after 24 h EdU pulses, using Click-iT EdU Flow Cytometry Cell Proliferation Assay (Thermo Fisher Scientific, C10424), according to manufacturer's instructions. Flow cytometry outputs were analyzed on FlowJo Software, with initial gatings on SSC-A/FSC-A, FSC-H/FSC-A, SSC-H/SSC-A and 7-AAD to exclude doublets and dead cells in all experiments.

[4] = test system: EHT cells; assay: EHT cell subculture with compounds, flow cytometry; format: cell-based, human; conditions: EHT cells, day 3; 2-DG 1 mM
Description: The RB9-CB1 human iPSC line was co-cultured with mouse embryonic fibroblasts (MEFs, Millipore), passaged every six days and processed to form embryoid bodies (EBs) as described previously (Guibentif, C. et al. Cell Reports 19, 10-19 (2017)). The differentiation protocol used in this study was previously described (Ditadi, A. & Sturgeon, C. M. Methods 101, 65-72 (2016)), however, small modifications were made to induce both primitive and definitive hematopoiesis, as indicated below and in FIG. 7, a. Newly-formed EBs were first kept in SFD medium supplemented with 1 ng/ml Activin A (on days 0-2) and 3 μM CHIR99021 (on day 2 only). At day 3, media was switched to “Day 3-SP34” medium supplemented with 1 ng/ml Activin A (on day 3 only) and 3 μM CHIR99021 (on day 3 only) until day 6. On day 6, media was replaced by “Day 6-SP34” medium, until day 8. […]
as §1

[5] = test system: HSC-like cells; assay: HSC-like cell subculture with compounds, flow cytometry; format: cell-based, human; conditions: day 3, 2-DG 1 mM
[6] = day 6 of subculture vs control, BPTES 25 μM, 1-AA 4 mM, TCP 300 nM, C646 10 μM, CP 5 μM

CC1=NN(c2ccc(C(=O)O)cc2)C(=O)/C1=C\c1ccc(-c2cc(C)c(C)cc2[N+](=O)[O-])o1 [C646]
HE-derived CD43+CD45+ population [1, 6]: did not have an effect

COC(=O)CCC(=O)C(=O)OC [DMK, dimethyl-ketoglutarate]
CD43+GPA+ population ([1]; HE subcultures without glutamine, days 3 and 6, vs control): could not rescue | proliferation profile of HE cells (CTV) ([1]; glutamine deprivation, day 3, vs control): could not restore | percentage of CD43+ cells that have lost CD34 expression ([1]; glutamine-free DMK-treated condition vs control, day 3): significantly decreased | rescue of CD43+ cell output from HE cells ([1]; glutamine-free medium, day 3, DMK 1.75 mM): up to 60% | percentages of CD43+CD45+ cells ([1]; glutamine-free medium, day 6, compared to the control): significant increase | NK cell differentiation (CD45+CD56+) [2]: allowed efficient NK cell differentiation

O=C(c1c2ccccc2cc2ccccc12)N1CCC(N2CCC[C@@H](C(=O)N3CCOCC3)C2)CC1 [CP-640186]
HE-derived CD43+CD45+ population [1, 6]: had the same effect as DCA

N#CC(C#N)=NNc1ccc(OC(F)(F)F)cc1 [FCCP, Carbonyl cyanide 4-(trifluoromethoxy)phenylhydrazone]
TMRE signal [3]: abrogated the TMRE signal

N[C@@H]1C[C@H]1c1ccccc1 (racemic) [TCP, Tranylcypromine]
CD43+GPA+ cell frequency following UK5099 treatment of HE cells [1]: no increase | HE-derived CD43+CD45+ population [1]: more CD43^+CD45^+ cells | myeloid differentiation (CD43+CD45+CD33+CD11b+) [1]: specifically increased

O=CC[C@@H](O)[C@H](O)[C@H](O)CO [2-DG, 2-Deoxy-D-glucose]
generation of the CD43+GPA+ cell population ([1]; day 3, % of the control, 2-DG 1 mM): less than 50% | CD43+ cell output from HE cells ([1]; day 3 of subculture, 2-DG 1 mM): significantly reduced | generation of the CD43+CD45+ cell population ([1]; day 6, % of the control, 2-DG 1 mM): less than 50% | proliferation rate (CellTrace Violet) [4]: significantly reduced | proliferation rate (CellTrace Violet) [5]: significantly reduced

CC(N)[PH](=O)O (stereo not drawn) [1-AA, 1-aminoethylphosphinic acid]
HE-derived CD43+GPA+ cell output ([1]; BPTES 25 μM, 1-AA 4 mM): significant increase | levels of total CD43+ cells ([1]; day 6, treated vs untreated): unchanged | HE-derived CD43+CD45+ population [1, 6]: significant decrease

CC(C)c1c(C(=O)Nc2ccccc2)c(-c2ccccc2)c(-c2ccc(F)cc2)n1CC[C@@H](O)C[C@@H](O)CC(=O)O [atorvastatin]
effect of DCA on CD43+CD45+ cells ([1]; Ato 0.5 μM in combination with DCA 3 mM): abrogated the effect of DCA

CC(/C=C/C(=O)NO)=C\[C@@H](C)C(=O)c1ccc(N(C)C)cc1 [TSA, Trichostatin A]
emergence of CD43+ hematopoietic cells ([1]; TSA 60 nM, day 3): impaired the emergence

O=C(Cc1ccccc1)Nc1nnc(CCSCCc2nnc(NC(=O)Cc3ccccc3)s2)s1 [BPTES]
HE-derived CD43+GPA+ cell output ([1]; BPTES 25 μM, 1-AA 4 mM): sharp decline | HE-derived CD43+CD45+ population [1, 6]: sharp decline
